BODIPY = fluorogenic core (…diaza-s-indacene), attached to Trp by a spacer-free C—C linkage
What was measured:
PS positive cells [1] = assay: Flow cytometry staining of PS positive cells on one day old mouse thymocytes, side by side with Apotracker Green and Annexin V; assay type: cell-based; details: one day old C57BL/6 mouse thymocytes, Atto 647 Item-2 28 pM/test and Apotracker 400 nM/test in PBS without Ca2+, Alexa 647 Annexin V in Annexin V binding buffer, Sytox Blue
Excerpt: Whether an agent is considered to be a PS binding agent or to have a PS binding activity, it can be determined by using a flow cytometer to detect the PS binding activity of said agent which has been illustrated in the art. Thereby, PS positive cells can be used in such an assay, wherein the number of stained cells may be compared to the reference agent Apotracker Green and/or Annexin V, in accordance with the present invention.
To validate the Atto 647 Item-2 by flow cytometry, one day old C57BLU6 mouse thymocytes were side by side incubated with 28 pM/test of Atto 647 Item-2 and Sytox Blue or 400 nM/test of Apotracker and Sytox Blue in PBS without Ca^2+ or 5 μLtest of Alexa 647 Annexin V and of Sytox Blue in Annexin V binding buffer for 15 minutes at room temperature, then the cells were analyzed with NovoCyte Quanteon flow cytometry without wash. Debris were gated out based on cell density plot in a lower level of forward scatter. The two-parameter density plots show Atto 647 Item-2 or Apotracker Green or Annexin V versus Sytox Blue. Sytox Blue is an impermeant blue-emitting nucleic acid indicator which is used for indicating the dead cells. Sytox Blue was used at 20 nM/test in herein.
The cells were analyzed with NovoCyte Quanteon flow cytometry without wash.

PS positive cells [2] = assay: Flow cytometry of Atto 647 Item-2 stained U937 cells before and after 2% PFA fixation; assay type: cell-based; details: U937 cells in PBS without Ca2+
Protocol: In order to validate if the PS positive cells stained with Atto 647 Item-2 are fixable, the fresh and 2 days IL-4 stimulated U937 cells were simultaneously stained with 28 pM/test of Atto 647 Item-2 and 20 nM of Sytox Blue, then the cells were split into two sets. One set of cells were analyzed with flow cytometry right after staining without wash, the other set of cells were fixed by adding 16% of Paraformaldehyde (PFA) to the final concentration at 2% PFA for 10 minutes at room temperature followed by centrifugation at 350 g for 5 minutes. Then the cells were resuspended in PBS without Ca^2+. The fresh cells and stimulated cells with or without fixation were analyzed on day 0 and day 2 respectively. The cells were analyzed with NovoCyte Quanteon flow cytometry without wash.

Apotracker Green: cyclic peptide of SEQ ID NO: 1 [RKKWFW(BODIPY)G]; calcium-independent PS binding agent, commercial name Apotracker Green (cyclo(RKKWFW(BODIPY)G)) [reference compound]
staining pattern and frequencies of PS positive dying cells and dead cells (PS positive cells [1]): comparable to each other

Item-2: PS binding compound derivative comprising SEQ ID NO: 2 [RKKWFWC], head-to-tail cyclized (head-to-tail cyclized)
calcium dependence of PS binding (PS positive cells [2]): Ca^2+ independent

B1: Annexin V: recombinant protein, PS binding agent binding PS in the presence of calcium; used as Alexa 647 conjugate (protein, UniProt P08758 2-320, looked up)
Annexin A5: AQVLRGTVTDFPGFDERADAETLRKAMKGLGTDEESILTLLTSRSNAQRQEISAAFKTLFGRDLLDDLKSELTGKFEKLIVALMKPSRLYDAYELKHALKGAGTNEKVLTEIIASRTPEELRAIKQVYEEEYGSSLEDDVVGDTSGYYQRMLVVLLQANRDPDAGIDEAQVEQDAQALFQAGELKWGTDEEKFITIFGTRSVSHLRKVFDKYMTISGFQIEETIDRETSGNLEQLLLAVVKSIRSIPAYLAETLYYAMKGAGTDDHTLIRVMVSRSEIDLFNIRKEFRKNFATSLYSMIKGDTSGDYKKALLLLCGEDD
modifications: Alexa 647 label
notes: used as Alexa 647 conjugate
staining pattern and frequencies of PS positive dying cells and dead cells (PS positive cells [1]): comparable to each other

— patent publication US20240262865A1, “Calcium independent phosphatidylserine binding compounds for detecting phosphatidylserine positive cells” (priority 2023, published 2024)
